Data on 10 compounds can be found in patent US8263596B2, “Kinase inhibitors and method of treating cancer” (University Health Network, priority 2010, dated 2012).

Assay [1] addresses T1, human PLK4 (Homo sapiens, UniProt O00444).
T1 construct: amino terminal GST fusion of residues 1-391 of human PLK4; made in house; host or cells: E. coli
T1 sequence (O00444 1-391): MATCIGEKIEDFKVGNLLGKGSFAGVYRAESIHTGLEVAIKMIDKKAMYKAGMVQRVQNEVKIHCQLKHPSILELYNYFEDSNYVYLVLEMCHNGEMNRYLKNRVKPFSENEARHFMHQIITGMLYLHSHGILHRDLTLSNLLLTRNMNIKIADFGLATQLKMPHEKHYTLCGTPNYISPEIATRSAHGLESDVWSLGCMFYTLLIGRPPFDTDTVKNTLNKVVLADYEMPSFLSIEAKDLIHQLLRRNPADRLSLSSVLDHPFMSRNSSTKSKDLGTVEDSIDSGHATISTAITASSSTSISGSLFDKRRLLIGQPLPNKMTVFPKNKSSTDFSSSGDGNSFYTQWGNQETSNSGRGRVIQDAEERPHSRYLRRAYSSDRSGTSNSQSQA
The experiment in a line: PLK4 inhibition assay (indirect ELISA). The format is biochemical. A general note: In an ELISA, binding on a coated surface is turned into a signal by an enzyme label.
Protocol: PLK4 activity was measured using an indirect ELISA detection system. […] The colourimetric reaction was allowed to continue for 5 minutes, followed by addition of stop solution (0.5 N sulphuric acid), and quantified by detection at 450 nm with either a monochromatic or filter based plate reader (Molecular Devices M5 or Beckman DTX880, respectively).
Compounds were pre-incubated in the presence of enzyme for 15 minutes prior to addition of ATP and the activity remaining quantified using the above described activity assay. […] The IC50 value was determined using a non-linear 4 point logistic curve fit (XLfit4, IDBS) with the formula; (A+(B/(1+((x/C)^D)))), where A=background value, B=range, C=inflection point, D=curve fit parameter.

The target of assay [2] is T2, Aurora A (Homo sapiens, UniProt O14965).
T2 sequence (O14965 1-403): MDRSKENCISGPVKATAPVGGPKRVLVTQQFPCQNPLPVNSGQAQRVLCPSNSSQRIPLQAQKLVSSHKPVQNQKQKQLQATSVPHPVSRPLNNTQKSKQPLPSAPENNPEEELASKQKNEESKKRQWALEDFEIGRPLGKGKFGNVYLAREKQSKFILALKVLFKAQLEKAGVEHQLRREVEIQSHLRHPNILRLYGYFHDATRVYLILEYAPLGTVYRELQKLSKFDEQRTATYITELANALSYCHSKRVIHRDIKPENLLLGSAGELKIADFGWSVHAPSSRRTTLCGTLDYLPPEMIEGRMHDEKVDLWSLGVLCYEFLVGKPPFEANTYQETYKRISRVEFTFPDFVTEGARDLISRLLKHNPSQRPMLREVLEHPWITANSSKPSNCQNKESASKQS
The experiment in a line: Aurora A inhibition assay (Z-Lyte). The format is biochemical.

Assay [3] has as its target Aurora B (Homo sapiens, UniProt Q96GD4). The experiment in a line: Aurora B inhibition assay (Z-Lyte). The format is biochemical. Conditions: read-out: IC50 Ranges Aurora B.
Protocol: Aurora B inhibition was determined using the Z-Lyte assay kit from Invitrogen. […] The % inhibition values were determined according to the manufacturer's directions and IC50 values were obtained using a non-linear 4 point logistic curve fit (XLfit4, IDBS)
Assay [4] relates to HUV-EC-C cells. Kind of assay: In vitro angiogenesis assay (tube formation). Conditions: 4 hr. The format is cell-based. The method, then:
Activity against these RTKs can result in antiangiogenic activity which is associated with slowed tumor growth and/or tumor regression. To measure the antiangiogenic effects of compounds of the invention, selected examples were tested in an angiogenesis assay as described below.
HUV-EC-C cells were obtained from the American Type Culture Collection (ATCC, CRL-1730), and were used at early passage for the assay. The in vitro Angiogenesis Assay Kit (Chemicon) was used according to the manufacturer's recommendation. An ice-cold mixture of ECMatrix was transferred into a precooled 96-well plate. After the matrix solution had solidified (>1 hr incubation at 37° C.), 8,000 cells were mixed with the appropriate inhibitor concentration (in 100 microlitres EGM-2) and plated into each well. The clinical antiangiogenic, Sutent was used as a positive control in comparison to a compound of the invention, A13. After incubation at 37° C. for 4 hr, tube formation was inspected. Two methods, pattern recognition and branch point counting, were used to quantify the progression of angiogenesis and expressed as a percentage of the control tube count (FIGS. 1 and 2).

Assay [5] concerns the target T3, FLT3 (Homo sapiens, UniProt P36888).
T3 construct: purchased Invitrogen PV3182
T3 sequence (P36888 27-993): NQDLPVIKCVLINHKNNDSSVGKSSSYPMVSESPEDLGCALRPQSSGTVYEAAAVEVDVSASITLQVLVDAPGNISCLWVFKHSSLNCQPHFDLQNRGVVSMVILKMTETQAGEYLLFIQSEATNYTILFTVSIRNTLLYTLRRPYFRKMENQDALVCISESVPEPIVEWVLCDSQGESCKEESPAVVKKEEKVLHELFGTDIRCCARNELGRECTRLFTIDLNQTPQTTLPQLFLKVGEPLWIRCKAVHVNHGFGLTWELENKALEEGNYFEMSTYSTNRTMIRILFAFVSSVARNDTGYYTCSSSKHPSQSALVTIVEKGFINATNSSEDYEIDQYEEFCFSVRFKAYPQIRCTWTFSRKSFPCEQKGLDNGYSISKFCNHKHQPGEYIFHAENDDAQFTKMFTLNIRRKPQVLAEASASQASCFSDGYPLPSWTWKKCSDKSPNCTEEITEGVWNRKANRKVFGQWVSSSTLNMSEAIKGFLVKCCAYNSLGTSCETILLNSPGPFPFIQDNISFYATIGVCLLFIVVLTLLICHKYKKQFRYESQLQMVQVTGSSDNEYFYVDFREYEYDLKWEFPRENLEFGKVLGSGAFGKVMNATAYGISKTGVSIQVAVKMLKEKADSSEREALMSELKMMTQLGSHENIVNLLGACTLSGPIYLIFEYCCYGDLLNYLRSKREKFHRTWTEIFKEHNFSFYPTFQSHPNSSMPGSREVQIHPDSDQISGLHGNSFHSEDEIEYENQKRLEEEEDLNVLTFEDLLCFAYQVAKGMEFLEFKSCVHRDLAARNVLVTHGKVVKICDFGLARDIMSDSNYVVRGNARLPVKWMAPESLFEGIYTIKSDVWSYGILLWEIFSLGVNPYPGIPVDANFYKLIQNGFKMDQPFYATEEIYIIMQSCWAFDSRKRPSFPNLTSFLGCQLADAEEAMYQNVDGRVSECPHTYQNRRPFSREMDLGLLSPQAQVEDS
The experiment in a line: FLT3 inhibition assay (Z-Lyte). The format is biochemical. The settings on record: read-out: IC50 Ranges Flt3.
Protocol: The enzymatic activity of FLT3 was determined using the Z-Lyte assay kit from Invitrogen (Invitrogen cat #PV3191). […] The % inhibition values were determined according to the manufacturer's directions and IC50 values were obtained using a non-linear 4 point logistic curve fit (XLfit4, IDBS).

Read-outs that look alike come from different tables or passages of the source.

Sequence of Aurora B (Q96GD4 whole entry): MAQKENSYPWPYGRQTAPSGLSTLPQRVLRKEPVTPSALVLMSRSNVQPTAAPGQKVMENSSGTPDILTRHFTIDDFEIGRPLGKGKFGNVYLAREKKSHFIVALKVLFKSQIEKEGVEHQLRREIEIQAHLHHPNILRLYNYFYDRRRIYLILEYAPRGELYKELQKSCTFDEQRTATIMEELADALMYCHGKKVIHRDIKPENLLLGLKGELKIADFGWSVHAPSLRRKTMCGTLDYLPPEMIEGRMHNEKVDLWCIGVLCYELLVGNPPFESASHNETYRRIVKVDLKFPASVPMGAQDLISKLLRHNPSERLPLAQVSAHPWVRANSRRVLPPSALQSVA

Regarding `CN1CCN(c2ccc(-c3n[nH]c4cc([C@@H]5C[C@@]56C(=O)Nc5ccccc56)ccc34)cn2)CC1` (racemic) [Example A18, (1R*,2S*)-2-(3-(6-(4-Methylpiperazin-1-yl)pyridin-3-yl)-1H-indazol-6-yl)spiro[cyclopropane-1,3′-indolin]-2′-one], the figures for the IC50 in assay [1], in assay [2] and in assay [3] were less than 100 nM, 100 to 1000 nM and less than 100 nM, respectively.
With `COc1ccc2c(c1)[C@]1(C[C@H]1c1ccc3c(-c4ccc(N5CCN(C)CC5)nc4)n[nH]c3c1)C(=O)N2` (relative stereo) [Example A13, (1R*,2S*)-5′-Methoxy-2-(3-(6-(4-methylpiperazin-1-yl)pyridin-3-yl)-1H-indazol-6-yl)spiro[cyclopropane-1,3′-indolin]-2′-one], the “antiangiogenic effect (tube formation)” value in assay [4] was “anti-agiogenic effects at submicromolar concentrations”.
Take `O=C1Nc2ccccc2[C@]12C[C@H]2c1ccc2c(/C=C/c3ccncc3)n[nH]c2c1` (relative stereo) [Example A22, (1R*,2S*)-(E)-2-(3-(2-(pyridin-4-yl)vinyl)-1H-indazol-6-yl)spiro-[cyclo-propane-1,3′-indolin]-2′-one]: the “antiangiogenic effect (tube formation)” value in assay [4] is recorded as “anti-agiogenic effects at submicromolar concentrations”.
For `CN(C)Cc1ccc(/C=C/c2n[nH]c3cc([C@@H]4C[C@@]45C(=O)Nc4ccccc45)ccc23)cc1` (relative stereo) [Example A23, (1R*,2S*)-(E)-2-(3-(4-((dimethylamino)methyl)styryl)-1H-indazol-6-yl)spiro[cyclopropane-1,3′-indolin]-2′-one 2,2,2-trifluoroacetate], the “antiangiogenic effect (tube formation)” value in assay [4] is recorded as “anti-agiogenic effects at submicromolar concentrations”.
In the case of `COc1ccc2c(c1)[C@]1(C[C@H]1c1ccc3c(-c4cccc(CN5CCOCC5)c4)n[nH]c3c1)C(=O)N2` (relative stereo) [Example A136, (1R*,2S*)-5′-methoxy-2-(3-(3-(morpholinomethyl)phenyl)-1H-indazol-6-yl)spiro[cyclopropane-1,3′-indolin]-2′-one 2,2,2-trifluoroacetate], the IC50 is less than 100 nM in assay [1] (read-out: IC50 Ranges PLK4), less than 100 nM in assay [3] and greater than 1000 nM in assay [5].
As for `CCc1ccc2c(c1)[C@]1(C[C@H]1c1ccc3c(-c4ccc(N5CCN(C)CC5)cc4)n[nH]c3c1)C(=O)N2` (relative stereo) [Example A142, (1R*,2S*)-5′-ethyl-2-(3-(4-(4-methylpiperazin-1-yl)phenyl)-1H-indazol-6-yl)spiro[cyclopropane-1,3′-indolin]-2′-one 2,2,2-trifluoroacetate], the inhibition at 1 µM in assay [2] is less than 50%.
For the compound `COc1ccc2c(c1)[C@]1(C[C@H]1c1ccc3c(/C=C/c4ccc(C(=O)N5CCN(C)CC5)cc4)n[nH]c3c1)C(=O)N2` (relative stereo) [Example A179, (1R*,2S*)-(E)-5′-methoxy-2-(3-(4-(4-methylpiperazine-1-carbonyl)styryl)-1H-indazol-6-yl)spiro[cyclopropane-1,3′-indolin]-2′-one 2,2,2-trifluoroacetate], the IC50 in assay [1] (read-out: IC50 Ranges PLK4), in assay [2] and in assay [3] was less than 100 nM each time.
Turning to `COCCN1C(=O)[C@@]2(C[C@H]2c2ccc3c(/C=C/c4ccc(CN(C)C)cc4)n[nH]c3c2)c2ccccc21` (relative stereo) [Example A180, (1R*,2S*)-(E)-2-(3-(4-((dimethylamino)methyl)styryl)-1H-indazol-6-yl)-1′-(2-methoxyethyl)spiro[cyclopropane-1,3′-indolin]-2′-one 2,2,2-trifluoroacetate], in assay [2], the IC50 is less than 100 nM.
`COc1ccc2c(c1)[C@]1(C[C@H]1c1ccc3c(/C=C/c4cccc(CN5CCOCC5)c4)n[nH]c3c1)C(=O)N2` [Example A132, (1R,2S)-5′-methoxy-2-(3-(3-(morpholinomethyl)styryl)-1H-indazol-6-yl)spiro[cyclopropane-1,3′-indolin]-2′-one 2,2,2-trifluoroacetate] registered a concentration for half-maximal inhibition (IC50) in assay [2] of 100 to 1000 nM.
The same measure, in the same setting: as for `COc1ccc2c(c1)[C@]1(C[C@H]1c1ccc3c(/C=C/c4cccc(CN(C)C)c4)n[nH]c3c1)C(=O)N2` [Example A134, (1R,2S)-2-(3-(3-((dimethylamino)methyl)styryl)-1H-indazol-6-yl)-5′-methoxyspiro[cyclopropane-1,3′-indolin]-2′-one 2,2,2-trifluoroacetate], the figure is 100 to 1000 nM.

The IC50 is the concentration that inhibits the measured activity by half. The term inhibition denotes the percentage by which the read-out fell short of the control.
